From patent publication US20170007617A1, “INTRAVENOUS FORMULATIONS OF A LATE SODIUM CURRENT INHIBITOR” (Gilead Sciences Drive, priority 2015, published 2017) come the findings set out here.

One may read the solubility as how much of the substance goes into solution per volume.

In brackets after ≈: the same amount, converted by molar mass. Like-named read-outs stand apart in the source and are kept apart here.

Holding throughout (type): physicochemical
A short description of data set [1]: Precipitation upon dilution of pre-concentrate into saline. The settings on record: pre-concentrated formulation of 40% TWEEN 80 and 60% PEG 400.
Data set [2] can be described thus: Solubility of Compound (I) in water and solubilizing vehicles.
Data set [3] can be described thus: Chemical stability in solution.

Turning to `O=C1c2cc(-c3ccc(OC(F)(F)F)cc3)ccc2OCCN1Cc1ncccn1` [Compound (I), 4-(pyrimidin-2-ylmethyl)-7-(4-(trifluoromethoxy)phenyl)-3,4-dihydrobenzo[f][1,4]oxazepin-5(2H)-one], the “concentration needed to avoid precipitation upon dilution” value in data set [1] is at most 30000 µg/mL. Also, the solubility is 1400 µg/mL (≈ 3.37 mM) in data set [2] (1.6% TWEEN 80 and 2.4% PEG 400 in water, aqueous with cosolvent or surfactant or cyclodextrin, 1.6% TWEEN 80 and 2.4% PEG 400 in water, read-out: solubility); above 100000 µg/mL in data set [2] (40% TWEEN 80 and 60% PEG 400, organic solvent or mixture, 40% TWEEN 80 and 60% PEG 400, read-out: solubility); 400 µg/mL (≈ 0.963 mM) in data set [2] (about 0.4% TWEEN 80 and about 0.6% PEG 400 in water, aqueous with cosolvent or surfactant or cyclodextrin, about 0.4% TWEEN 80 and about 0.6% PEG 400 in water, read-out: solubility); at most 5000 µg/mL in data set [2] (oil-in-water emulsion with 20% oil, oil or lipid, oil-in-water emulsion with 20% oil, read-out: solubility); around 25000 µg/mL (≈ 60.2 mM) in data set [2] (safflower oil, oil or lipid, safflower oil, read-out: solubility in triglycerides); 1100 µg/mL (≈ 2.65 mM) in data set [2] (water with 3.6% Captisol, aqueous with cosolvent or surfactant or cyclodextrin, water with 3.6% Captisol, read-out: solubility). Moreover, the solubility came out at 3200 µg/mL (≈ 7.7 mM) in data set [2] (water with 7% hydroxypropyl-β-cyclodextrin, aqueous with cosolvent or surfactant or cyclodextrin, water with 7% hydroxypropyl-β-cyclodextrin, read-out: solubility); 3900 µg/mL (≈ 9.39 mM) in data set [2] (water with 12% Captisol, aqueous with cosolvent or surfactant or cyclodextrin, water with 12% Captisol, read-out: solubility); 7400 µg/mL (≈ 17.8 mM) in data set [2] (water with 14% hydroxypropyl-β-cyclodextrin, aqueous with cosolvent or surfactant or cyclodextrin, water with 14% hydroxypropyl-β-cyclodextrin, read-out: solubility); 18000 µg/mL (≈ 43.3 mM) in data set [2] (water with 28% hydroxypropyl-β-cyclodextrin, aqueous with cosolvent or surfactant or cyclodextrin, water with 28% hydroxypropyl-β-cyclodextrin, read-out: solubility); 13700 µg/mL (≈ 33 mM) in data set [2] (water with 36% Captisol, aqueous with cosolvent or surfactant or cyclodextrin, water with 36% Captisol, read-out: solubility); 10 µg/mL (≈ 0.0241 mM) in data set [2] (water, read-out: water solubility). The “amount of PEG 400 required to achieve 0.3 mg/mL” value in data set [2] (PEG 400/water co-solvent system, 0.3 mg/mL needed in infusion media for 15 mg dose) is reported as “more than 30%”. In data set [2] (water, listed as compound of formula (I)), the water solubility result is reported as “about 0.01 mg/mL”. Besides, the “chemical stability in solution” value in data set [3] was “chemically stable in solution”.
